Measured values reported in patent publication US20250333405A1, “ANTAGONISTS OF GPR39 PROTEIN” (VASOCARDEA, INC., priority 2024, published 2025).

Target: T1, human GPR39 receptor (Homo sapiens, UniProt O43194)
T1 construct: PC3 Cells, Expressing the Endogenous Human GPR39 Receptor; endogenous in cells; host or cells: PC3 (human prostate adenocarcinoma) cells
T1 sequence (O43194 1-453): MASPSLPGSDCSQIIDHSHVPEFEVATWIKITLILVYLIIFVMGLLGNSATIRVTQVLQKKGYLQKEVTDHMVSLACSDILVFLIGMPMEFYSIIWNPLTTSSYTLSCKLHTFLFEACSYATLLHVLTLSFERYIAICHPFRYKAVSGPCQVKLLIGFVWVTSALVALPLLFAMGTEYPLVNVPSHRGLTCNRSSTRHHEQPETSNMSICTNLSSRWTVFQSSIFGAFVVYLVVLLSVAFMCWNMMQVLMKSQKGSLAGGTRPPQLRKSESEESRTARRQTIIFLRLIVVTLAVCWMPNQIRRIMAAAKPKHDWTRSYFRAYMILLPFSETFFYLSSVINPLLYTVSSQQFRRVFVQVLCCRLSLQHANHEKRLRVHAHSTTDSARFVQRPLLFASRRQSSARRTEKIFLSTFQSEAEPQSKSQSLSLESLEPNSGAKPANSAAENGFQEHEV
Experiment: Intracellular calcium response (FLIPR, Calcium-6) in PC3 cells, antagonism of agonist C3 (TC-G 1008) at EC90
Type: cell-based
Conditions: functional pKi (-Log10Ki) by modified Cheng-Prusoff from IC50; PC3 cells endogenously expressing human GPR39; 30 μM ZnCl2; agonist C3 (TC-G 1008) at EC90 1.5 μM; read-out: fpKi activity
How it was run: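 Calcium-6-loaded cells in HEPES buffer pH 7.4 were given compound with 30 μM final ZnCl2 (0.32% DMSO) for 10 min, then challenged with 1.5 μM C3. Baseline-subtracted peak fluorescence expressed as % inhibition of the C3 response; IC50 from four-parameter logistic fit, reported as binned fpKi.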

SMILES	Ki
Cc1cc(C(=O)N2CCN(C)CC2c2ccccc2)c(N2CCCC2)cc1NC(=O)C1CC1 (centres unmarked) [Example 92, N-[2-methyl-4-(4-methyl-2-phenylpiperazine-1-carbonyl)-5-pyrrolidin-1-ylphenyl]cyclopropanecarboxamide]	> 6310 nM
O=C(Nc1ccc(C(=O)N2CCC3(CC2)COC3)c(-c2cccc(C(F)(F)F)n2)c1)C1CC1 [Example 38, N-[4-(2-oxa-7-azaspiro[3.5]nonane-7-carbonyl)-3-[6-(trifluoromethyl)pyridin-2-yl]phenyl]cyclopropanecarboxamide]	≤ 50.1 nM
Cc1nnc(-c2ccc(C(=O)N3CCC(C#N)CC3)c(-c3ccn(C(C)C)n3)c2)[nH]1 [Example 120, 1-[2-(1-isopropylpyrazol-3-yl)-4-(5-methyl-4H-1,2,4-triazol-3-yl)benzoyl]piperidine-4-carbonitrile]	316 to 1000 nM
Cc1nnc(-c2ccc(C(=O)N3CCC(C(F)(F)F)CC3)c(-c3ccn(CC(C)C)n3)c2)[nH]1 [Example 45, [2-[1-(2-methylpropyl)pyrazol-3-yl]-4-(5-methyl-4H-1,2,4-triazol-3-yl)phenyl]-[4-(trifluoromethyl)piperidin-1-yl]methanone]	≤ 50.1 nM
Cc1nnc(-c2ccc(C(=O)N3CCC4(CC3)CC4)c(-c3ccn(C(C)C)n3)c2)[nH]1 [Example 50, 6-azaspiro[2.5]octan-6-yl-[4-(5-methyl-4H-1,2,4-triazol-3-yl)-2-(1-propan-2-ylpyrazol-3-yl)phenyl]methanone]	≤ 50.1 nM
COC1(C)CCN(C(=O)c2ccc(-c3nnc(C)[nH]3)cc2-c2nc(C(F)(F)F)cs2)CC1 [Example 67, (4-methoxy-4-methyl-1-piperidyl)-[4-(5-methyl-4H-1,2,4-triazol-3-yl)-2-[4-(trifluoromethyl)thiazol-2-yl]phenyl]methanone]	≤ 50.1 nM
Cc1nnc(-c2ccc(C(=O)N3CCC(C(F)(F)F)CC3)c(-n3ccc(C4CC4)n3)c2)[nH]1 [Example 121, [2-(3-cyclopropylpyrazol-1-yl)-4-(5-methyl-4H-1,2,4-triazol-3-yl)phenyl]-[4-(trifluoromethyl)piperidin-1-yl]methanone]	≤ 50.1 nM
O=C(Nc1ccc(C(=O)N2CCS(=O)(=O)CC2)c(N2CCCC2)c1Cl)C1CC1 [Example 98, N-[2-chloro-4-(1,1-dioxo-1,4-thiazinane-4-carbonyl)-3-pyrrolidin-1-ylphenyl]cyclopropanecarboxamide]	316 to 1000 nM
Cc1nnc(-c2ccc(C(=O)N3CCC(C)CC3)c(-c3cccc(C4CC4)n3)c2)[nH]1 [Example 63, [2-(6-cyclopropyl-2-pyridyl)-4-(5-methyl-4H-1,2,4-triazol-3-yl)phenyl]-(4-methyl-1-piperidyl)methanone]	≤ 50.1 nM
O=C(Nc1ccc(C(=O)N2CCC3(COC3)C2)c(N2CCCC2)c1)C1CC1 [Example 3, N-[4-(2-oxa-7-azaspiro[3.4]octane-7-carbonyl)-3-pyrrolidin-1-ylphenyl]cyclopropanecarboxamide]	1260 to 6310 nM
Cc1nnc(-c2ccc(C(=O)N3CCC(F)(F)CC3)c(-c3ccn(C)n3)c2)[nH]1 [Example 46, (4,4-difluoropiperidin-1-yl)-[2-(1-methylpyrazol-3-yl)-4-(5-methyl-4H-1,2,4-triazol-3-yl)phenyl]methanone]	63.1 to 251 nM
